Measured values published in patent US4847254A, “CNS affecting 5-oxy-3-aminomethyl-dihydro-benzofurans and benzothiophenes” (H. Lundbeck A/S, priority 1987, dated 1989).

What was measured:
DA-receptor = assay: Contralateral circling in rats with unilateral 6-hydroxy-DA (6-OHDA) lesions; as to 6-OHDA Contr. Circle. rats (sc) Duration: test concentration or dose not given here; format: in vivo, rat (Wistar); conditions: 6-OHDA-lesioned rats; for 6-OHDA Contr. Circle. rats (sc) Duration: duration given instead of ED50; for 6-OHDA Contr. Circle. rats (sc) ED50: doses calculated as the free amine
Procedure: Furthermore, the potency of the drug to induce contralateral circling behaviour in 6-hydroxy-DA-lesioned rats was determined. The specificity of this receptor resembles that of the […] DA receptors mediating motility inhibition.
The experiments were made according to published methods, using rats of the Wistar strain.
Therefore, also the ability of a test compound to induce contralateral circling in rats with unilateral 6-hydroxy-DA lesions was evaluated (loc cit.).

[1] = test system: postsynaptic DA-receptors; assay: Reversal of locomotor depression (hypomotility) in reserpine plus alpha-methyl-p-tyrosine pretreated rats; format: in vivo, rat (Wistar)
DA-autoreceptors = assay: Inhibition of spontaneous locomotor activity (motility inhibition) in rats; format: in vivo, rat (Wistar); conditions: doses calculated as the free amine
[2] = test system: presynaptic DA-receptors (DA-autoreceptors); conditions: cited from earlier work

SMILES | 6-OHDA Contr. Circle. rats (sc) ED50 (DA-receptor) [µmol/kg] | Reserpin α-Mt Rev. rats (sc) ED50 [1] [µmol/kg] | Motility Inh. rats (sc) ED50 (DA-autoreceptors) [µmol/kg] | further results
CCCN(CCC)CC1CCc2ccc(OC(=O)c3ccccc3OC(C)=O)cc21 (centres unmarked) [Lu 24-032, 6-(2-acetyloxybenzoyloxy)-N,N-dipropyl-1-indanmethylamine] | – | – | – | 6-OHDA Contr. Circle. rats (sc) Duration (DA-receptor): 4 h
CCCN(C)CC1CCc2ccc(O)cc21 (centres unmarked) [Lu 25-009, 6-Hydroxy-N-methyl-N-propyl-1-indanmethylamine] | 0.82 | 66 | 0.65 | –
CCN(CC)CC1CCc2ccc(O)cc21 (single isomer, unassigned; (-)) [Lu 22-105, (-) N,N-diethyl-6-hydroxy-1-indanmethylamine] | 1.2 | 120 | 0.87 | –
CCN(CC)CC1CCc2ccc(OC(=O)C(C)(C)C)cc21 (centres unmarked) [Lu 23-020, 6-pivaloyloxy-N,N-diethyl-1-indanmethylamine] | 0.33 | – | 0.84 | –
CCN(CC)CC1COc2ccc(O)cc21 (centres unmarked) [Lu 24-088, 5-Hydroxy-2,3-dihydro-N,N-diethyl-3-benzofuranmethylamine] | 1.2 | – | 1.7 | Reserpin α-Mt Rev. rats (sc) % at 5 μmol/kg [1]: 13%
CCCN(CCC)CC1COc2ccc(O)cc21 (single isomer, unassigned; (+)) [Lu 24-122, (+)-5-hydroxy-2,3-dihydro-N,N-dipropyl-3-benzofuranmethylamine] | 0.16 | – | 0.81 | –
CCCN(CCC)CC1CCc2ccc(O)cc21 (centres unmarked) [Lu 21-051, N,N-dipropyl-6-hydroxy-1-indanmethylamine] | 0.35 | – | 0.45 | Reserpin α-Mt Rev. rats (sc) % at 5 μmol/kg [1]: 44%
CCCN(CCO)CC1COc2ccc(O)cc21 (centres unmarked) [Lu 24-102, 5-Hydroxy-2,3-dihydro-N-(2-hydroxyethyl)-N-propyl-3-benzofuranmethylamine] | 2.1 | 19 | 5.4 | –
CCCN(CCC)CC1CCc2ccc(OC(=O)c3ccccc3F)cc21 (centres unmarked) [Lu 24-033, 6-(2-fluorbenzoyloxy)-N,N-dipropyl-1-indanmethylamine] | – | – | – | 6-OHDA Contr. Circle. rats (sc) Duration (DA-receptor): 4 h
CCCN(CCC)CC1COc2ccc(O)cc21 (single isomer, unassigned; (-)) [Lu 24-121, (-)-5-hydroxy-2,3-dihydro-N,N-dipropyl-3-benzofuranmethylamine] | 1.7 | 86 | 5.4 | –
CCCN(CCC)CC1COc2ccc(O)cc21 (centres unmarked) [Lu 23-130, 5-Hydroxy-2,3-dihydro-N,N-dipropyl-3-benzofuranmethylamine] | 0.35 | 3.4 | 0.5 to 2 | –
CCCN(C)CC1COc2ccc(O)cc21 (centres unmarked) [Lu 24-103, 5-Hydroxy-2,3-dihydro-N-methyl-N-propyl-3-benzofuranmethylamine] | 1.2 | 290 | 4.5 | –
CCN(CC)CC1CCc2ccc(OC(=O)Nc3ccc(C(C)C)cc3)cc21 (centres unmarked) [Lu 25-177, 6-(4-isopropylphenylaminocarbonyloxy)-N,N-diethyl-1-indanmethylamine] | – | – | – | 6-OHDA Contr. Circle. rats (sc) Duration (DA-receptor): > 6 h
CCCN(C)CC1COc2ccc(O)cc21 (single isomer, unassigned; (-)) [Lu 25-021, (-)-5-hydroxy-2,3-dihydro-N-methyl-N-propyl-3-benzofuranmethylamine] | 5.2 | 290 | 5.4 | –
CCCN(CCc1cccs1)CC1COc2ccc(O)cc21 (centres unmarked) [Lu 24-155, 5-Hydroxy-2,3-dihydro-N-propyl-N-(2-thienyl-2-ethyl)-3-benzofuranmethylamine] | 1.2 | 28 | 7.0 | –
CCCN(CCc1ccccc1)CC1CCc2ccc(O)cc21 (centres unmarked) [Lu 21-113, 6-Hydroxy-N-propyl-N-(2-phenylethyl)-1-indanmethylamine] | 0.12 | – | 0.51 | Reserpin α-Mt Rev. rats (sc) % at 5 μmol/kg [1]: 63%
CCCN(CCC)CC1CCc2ccc(OC(=O)c3ccccc3Cl)cc21 (centres unmarked) [Lu 24-031, 6-(2-chlorobenzoyloxy)-N,N-dipropyl-1-indanmethylamine] | – | – | – | 6-OHDA Contr. Circle. rats (sc) Duration (DA-receptor): 4 h
CCCCN(CCCC)CC1CCc2ccc(O)cc21 (centres unmarked) [Lu 22-028, N,N-Dibutyl-6-hydroxy-1-indanmethylamine] | > 14 | – | 13 | –

SMILES | 6-OHDA Contr. Circle. rats (sc) ED50 (DA-receptor) [µmol/kg] | Reserpin α-Mt Rev. rats (sc) ED50 [1] [µmol/kg] | Motility Inh. rats (sc) ED50 (DA-autoreceptors) [µmol/kg] | further results
CCCN(CCc1ccccc1)CC1COc2ccc(O)cc21 (centres unmarked) [Lu 24-084, 5-Hydroxy-2,3-dihydro-N-(2-phenylethyl)-N-propyl-3-benzofuranmethylamine] | 0.94 | 11 | 1.9 | –
CCCN(CCC)CC1COc2ccc(OC(=O)NC(C)C)cc21 (centres unmarked) [Lu 25-158, 5-isopropylaminocarbonyloxy-2,3-dihydro-N,N-dipropyl-3-benzofuranmethylamine] | – | – | – | 6-OHDA Contr. Circle. rats (sc) Duration (DA-receptor): 4 h
CCCN(CCC)CC1CCc2ccc(O)cc21 (single isomer, unassigned; (-)) [Lu 22-050, (-)-N,N-dipropyl-6-hydroxy-1-indanmethylamine] | 0.45 | 60 | 1.3 | –
CCCN(CCC)CC1CCc2ccc(OC(=O)c3ccccc3OC)cc21 (centres unmarked) [Lu 24-030, 6-(2-methoxybenzoyloxy)-N,N-dipropyl-1-indanmethylamine] | – | – | – | 6-OHDA Contr. Circle. rats (sc) Duration (DA-receptor): 4 h
CCCN(CCC)CC1COc2ccc(OC(=O)c3ccccc3C)cc21 (centres unmarked) [Lu 24-074, 5-(2-Methylbenzoyloxy)-2,3-dihydro-N,N-dipropyl-3-benzofuranmethylamine] | – | – | – | 6-OHDA Contr. Circle. rats (sc) Duration (DA-receptor): 15 h
CCCNCC1CCc2ccc(O)cc21 (centres unmarked) [Lu 21-138, 6-Hydroxy-N-propyl-1-indanmethylamine] | 10 | – | 19 | –
CN(C)CC1CCc2ccc(O)cc21 (centres unmarked) [Lu 21-112, N,N-dimethyl-6-hydroxy-1-indanmethylamine] | 0.95 | 12 | 5.7 | –
CCCN(CCC)CC1CCc2ccc(OC(=O)c3c(F)cccc3F)cc21 (centres unmarked) [Lu 24-029, 6-(2,6-Difluorbenzoyloxy)-N,N-dipropyl-1-indanmethylamine] | – | – | – | 6-OHDA Contr. Circle. rats (sc) Duration (DA-receptor): 4 h
CCCN(CCC)CC1CCc2ccc(O)cc21 (single isomer, unassigned; (-)) [Lu 22-049, (-)-N,N-dipropyl-6-hydroxy-1-indanmethylamine] | 0.18 | 4.5 | 0.26 | –
CCCN(CCC)CC1COc2ccc(OC(=O)c3ccccc3N)cc21 (centres unmarked) [Lu 25-165, 5-(2-aminobenzoyloxy)-2,3-dihydro-N,N-dipropyl-3-benzofuranmethylamine] | – | – | – | 6-OHDA Contr. Circle. rats (sc) Duration (DA-receptor): > 6 h
CCCN(CCC)CC1COc2ccc(OC(=O)C(C)(C)C)cc21 (centres unmarked) [Lu 24-042, 5-Pivaloyloxy-2,3-dihydro-N,N-dipropyl-3-benzofuranmethylamine] | 0.40 | – | – | –
CCCN(C)CC1COc2ccc(O)cc21 (single isomer, unassigned; (+)) [Lu 25-020, (+)-5-hydroxy-2,3-dihydro-N-methyl-N-propyl-3-benzofuranmethylamine] | 0.95 | 65 | 4.1 | –
CCCN(CCC)CC1CSc2ccc(O)cc21 (centres unmarked) [Lu 24-100, 5-Hydroxy-2,3-dihydroxy-N,N-dipropyl-3-benzothiophenmethylamine] | 4.6 | 20 | 3.0 | –
CCN(CC)CC1CCc2ccc(O)cc21 (centres unmarked) [Lu 21-096, N,N-diethyl-6-hydroxy-1-indanmethylamine] | 0.19 | – | 1.0 | Reserpin α-Mt Rev. rats (sc) % at 5 μmol/kg [1]: 50%
CCCN(CCC)CC1CCc2ccc(OC(=O)c3ccccc3C)cc21 (centres unmarked) [Lu 24-028] | – | – | – | 6-OHDA Contr. Circle. rats (sc) Duration (DA-receptor): 18 h
CCCN(CCC)CC1CCc2ccc(OC)cc21 (centres unmarked) [Lu 21-097, N,N-dipropyl-6-methoxy-1-indanmethylamine] | > 14 | – | > 14 | –
CN1CCc2cccc3c2[C@H]1Cc1ccc(O)c(O)c1-3 [Apomorphine, apomorphine, reference compound] | 0.06 | 0.27 | 0.64 | clinical success at low doses ([2]; low doses, patients with schizophrenia and tardive dyskinesias): used with some success; selectivity of action at DA autoreceptors vs postsynaptic DA receptors ([2]; postsynaptic DA receptors stimulated by slightly higher doses): no selective action at DA autoreceptors
CCN(CC)CC1CCc2ccc(O)cc21 (single isomer, unassigned; (+)) [Lu 22-106, (+) N,N-diethyl-6-hydroxy-1-indanmethylamine] | 0.36 | 14 | 1.1 | –
